The test system of the assay is ARS mutant (ARS-Mut) with four base mutations (U28G, G42C, U47C and U51C). Type of assay: binding.

Each structure is given as a SMILES string.

Turning to `Nc1ncnc2nc[nH]c12` [adenine], the “change versus free ARS-Mut” value was “not much different” and the td amounted to 0.50 ms.

(Values after patent publication US12560588B2, “High-efficiency screening method for RNA-targeting drugs using nanopores” (KOREA RESEARCH INSTITUTE OF BIOSCIENCE AND BIOTECHNOLOGY, priority 2020, dated 2026).)
